Assay results taken from patent publication US11827663B2, “Use of UAP inhibitors to inhibit flux through the hexosamine biosynthetic pathway” (The Johns Hopkins University, priority 2014, dated 2023).
Like-named read-outs stand apart in the source and are kept apart here.

Legend:
Type in all cases: cell-based
global DNA methylation = test: Global DNA methylation assay in SW1990 cells
Experimental: In 6-well plates, SW1990 cells were seeded (3×10^5) and were treated with Ac4Glc2Bz at the indicated concentrations. DNA from treated cells was isolated using a FitAmp Blood and Cultured Cell DNA Extraction Kit (Epigentek) followed by colormetric determination of global methylation using a MethylFlash™ Methylated DNA Quantification Kit (Epigentek). […] For instance, by reducing flux through the HBP, UAP inhibitors could exert epigenetic effects, as global DNA methylation was increased as shown in FIG. 23. Although hypermethylation of promoter sites of tumor suppressors might be common in cancer at a global scale, cancer cells are almost always characterized by hypomethylation, which the current UAP inhibitors appeared to be reversing (Epigenomics. 2009 December; 1(2): 239-259; Oncogene. 12 Aug. 2002, Volume 21, Number 35, Pages 5400-5413).

SW1990 cells = test: Cell count / cell proliferation assay in SW1990 cells; conditions: for IC50: Homo sapiens
Experimental: FIG. 3 depicts the result of cell count assays after two days of incubation with an exemplary compound, Ac4Glc2Bz. The cells treated with the compound are, respectively, SW1990 and PANC-1, which are pancreatic cancer cell lines. Meanwhile, control samples were treated with solvent vehicle of 2.5 μL DMSO per 1 mL of medium.
FIGS. 5A and 5B show the results of cell toxicity experiments that were conducted on SW1990 and PANC-1 cells with the analogs indicated. Cells were counted after incubation with each analog for 48 hours. Cell counts were then normalized to controls, data was log transformed, and IC50 values were calculated. […]
Cells were incubated at a range of concentrations of the UAP inhibitors (typically at 0, 10, 25, 50, 100, and 150 μM) and the number of cells were quantified, typically by automated counting (e.g., with a Coulter Counter Z2 instrument) after 1, 2, 3, or 5 days of exposure.

[1] = tested on: UDP-Glc/GalNAc (HexNAc), product of UAP1/2; test: Targeted metabolomics, LC-MS/MS of UDP-HexNAc in 612 cells
Experimental: FIGS. 16A-16B show exemplary targeted metabolomics results from primary glioblastoma cells. […] (n=3, with error bars representing SEM;* indicates p<0.05)
In FIGS. 16A-16B, representative targeted metabolomics results from primary glioblastoma cells were quantitated using LC-MS/MS traces. For example, the 612 cells were treated with 50 μM or 100 μM of Ac4Glc2Bz or non-treated (control). Afterwards, the cell extracts were obtained using Bligh-Dyer extraction and the extracts were analyzed using LC-MS/MS. Twelve 150-mm tissue culture plates were coated with lamin (1 ug/cm^2) in PBS for 24 h. 5×10^6 612 cells were seed onto each plate in 20 mL of media for condition tested: DMSO vehicle control (2 plates) (matched to the volume of vehicle used for the 100 μM condition), 50 μM (4 plates), 100 μM (6 plates). Ater 48 h, the plates were cooled for 10 minutes on ice followed by aspiration of the media. The plates were then tilted at 30° for 30 seconds and any remaining media was removed. Plates were washed twice with 10 mL of ice cold PBS (calcium and magnesium ion free). Next, the plates were covered and chilled with dry ice for 10 minutes to completely freeze all of the cells. While freezing the cells, a solution of methanol:H2O (2:0.8) was made and chilled in an isopropyl alcohol-dry ice bath. The plates were transferred to wet ice and 500 μL of the MeOH:H2O solution was added to the plates. Cells were scraped and the were transferred to a 15 mL tube. 500 μL more of the methanol:H2O solution was added again, and any remaining cells were scraped off the plates and were transferred to the 15 mL tubes. Samples, while remaining cold, were sonicated 2-5 times for 1 s and 1 part of chloroform was added to produce a ration of 1:2:0.8 (CHCl3:MeOH:H2O). Samples were briefly vortexed while still cold and 1 part of H2O was added followed by vortexing. […] DNA quantity from the interphase disc was determined using a fluorescent assay (SIGMA). […] The aqeuous layers were combined after normazling reconstitutions to the quantities of DNA obtained for each condition tested. […]

[2] = tested on: N-glycans of SW1990 cells; test: Mass spectrometry of cell surface N-glycans in SW1990 cells; conditions: 100 μM
Experimental: FIGS. 18A-18B present mass spectrometry results showing levels of N-glycans (lower molecular weight glycans) and high molecular weight glycans following treatments with Ac4Glc2Bz (100 μM) in SW1990 cells.
(a) Cell surface N-Glycans. After two days of incubation with analog (a length of time sufficient to observe maximal “metabolic glycoengineering” effects (Biotechnol Bioeng 85, 394-405 (2004); Biotechnol Bioeng 109, 992-1006 (2012); Mol Cell Proteomics, 10.1074/mcp.M1112.017558 (2012); Glycobiology 19, 1382-1401 (2009); Nature Protocols 2, 1585-1602 (2007)), cells treated with PNGaseF, N-glycans were collected, and analyzed by following a recently developed protocol that optimizes sialic acid detection and quantification (Anal Chem 85, 3606-3613 (2013)). As previously developed, automated methods were used to analyze mass spectroscopy data to detect phenyl-modified sugars in glycan structures. This analysis was valuable to monitor whether any phenyl-modified analog was biosynthetically processed (instead or in addition to inhibiting UAP) and incorporated into cellular glycans.
For example, as shown in FIGS. 18A-18B, SW1990 cells were treated with Ac4Glc2Bz (100 μM), and the cell extracts were analyzed by mass spectrometry.

`CC(=O)OCC1OC(OC(C)=O)[C@@H](NC(=O)c2ccccc2)[C@@H](OC(C)=O)[C@@H]1OC(C)=O` (stereo partly drawn) [Ac4Glc2Bz] was tested, and the “global DNA methylation” value (global DNA methylation) was “promote global DNA methylation at higher doses”, the IC50 (SW1990 cells; SW1990, 48 h, cell count after two days of incubation, FIG. 3, read-out: IC50 of reduction of cell numbers, SW1990) was about 50 µM and the IC50 (SW1990 cells; SW1990, cells counted after 48 hours incubation, normalized to controls, read-out: Estimated IC50 values, SW1990) was 25.8 ± 1.5 µM. The “effect on SW1990 cell numbers / proliferation” value (SW1990 cells; in words) was “lowest IC50 value”, the “LC-MS/MS peaks for UDP-HexNAc in treated cell extracts” value ([1]; 612 cells, 50 μM or 100 μM, 48 h) was “substantially lower” and the “reduction of quantitized amount of UDP-HexNAc, particularly UDP-GlcNAc, vs non-treated cell” value ([1]; 612 cells, 50 μM, 48 h) was about 4 fold. For the same molecule, the “residual level of UDP-GlcNAc” value ([1]; printed as shown in FIGS. 18A-18B) was “about 25%”, the “amplitude of peaks for N-glycans (lower molecular weight glycans)” value [2] was “not significantly reduced” and the “peaks for high molecular weight glycans” value [2] was “quantitative changes were identified”.
